One experiment concerns SHP2-depleted LX-2 cells. Nature of the experiment: SHP2 knockdown (siRNA) LX-2 cells treated with LIN. The settings on record: LX-2 cells transfected with SHP2 siRNA. In kind it is cell-based, human. As for the experimental part: The LX-2 cell line was purchased from the Cell Bank Type Culture Collection of the Chinese Academy of Sciences (Shanghai, China). Cells were cultured in DMEM supplemented with 10% [v/v] foetal bovine serum, 2 mM glutamine, 100 U/ml penicillin, and […] streptomycin. SHP-2 and control siRNAs were obtained from Suzhou GenePharma Co., Ltd. (sense 5'-3': GAGAGAGGAAAGAGUAAAUTT; antisense 5'-3': AUUUACUCUUUCCUCUCUCTT). Transfection was performed according to the manufacturer’s instructions. Subsequent real-time PCR and western blotting were performed to analyse transfection efficiency.
Total RNA was extracted from liver tissues and LX-2 cells using the TRIzol reagent. cDNA was synthesised using a PrimeScript RT Master Mix kit. Real-time PCR was performed using SYBR Green premix according to the manufacturer’s instructions. Relative expression of target genes was normalised to actin, analysed by the delta-delta-CT method and given as a ratio compared with the vehicle control. Primer sequences used in this study are listed in Supplementary Material.

Experiment [1] concerns the target T1, SHP2-PTP K366A/Q510A double mutant (Homo sapiens, UniProt Q06124, K366A/Q510A).
T1 construct: Human SHP2 PTP domain (A237–I529) expression constructs; His-tag; made in house; host or cells: E. coli BL21 (DE3)
T1 sequence (Q06124 237-529 K366A/Q510A): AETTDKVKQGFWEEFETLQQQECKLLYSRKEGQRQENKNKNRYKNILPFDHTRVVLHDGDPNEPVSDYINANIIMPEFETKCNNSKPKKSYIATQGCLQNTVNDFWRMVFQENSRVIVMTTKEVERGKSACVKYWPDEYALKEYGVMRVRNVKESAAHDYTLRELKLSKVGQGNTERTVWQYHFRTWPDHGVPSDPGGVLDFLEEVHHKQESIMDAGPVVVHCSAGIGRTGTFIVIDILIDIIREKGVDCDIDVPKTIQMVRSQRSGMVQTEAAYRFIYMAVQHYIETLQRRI
Nature of the experiment: BLI assay, SHP2-PTP K366A/Q510A double mutant. In kind it is binding. As for the experimental part: Human SHP2 PTP domain (A237–I529) expression constructs were engineered by cloning PTPN11 (NP_002825.3) into the pET30 plasmid with a His-tag to support further protein purification. The K366A/Q510A double mutation was introduced into the wild-type template using a site-directed mutagenesis kit (E0554S; New England Biolabs). The expression constructs were sequenced and transformed into BL21 (DE3)-competent cells. E. coli cells were grown at 37°C in an LB culture medium in the presence of […] kanamycin until the OD600 reached 1.0. The medium was then cooled to 18°C and 1 mM isopropyl ß-D-1-thiogalactopyranoside (IPTG) was added to induce protein expression overnight.
Cell pellets were collected and suspended in a buffer of 50 mM Tris-HCl (Ph = 8.5), 150 mM NaCl supplemented with 10% glycerol, and lysed by homogeniser (JN-BIO, China). […]
The BLI assay was performed using a FortéBio Octet 96 system. […] After equilibrium, the kinetics of the LIN and SHP2-PTP association were analysed by soaking the SSA sensors in a compound solution with various LIN concentrations for 300 s (6.25, 12.5, 25, 50, 100, and 200 μM), followed by 300 s of dissociation in the same HEPES buffer. The equilibrium constant (KD) values were assessed using the FortéBio data analysis software by fitting the kinetic data using a 1:1 binding model.

Each structure is given as a SMILES string.

Take `C/C1=C\CCC2=C[C@@H](OC2=O)c2c(C)coc2C1` [LIN, linderalactone]: the “sensitivity of fibrogenic gene expression to LIN treatment” value in the experiment with SHP2-depleted LX-2 cells is “much less sensitive”. Moreover, the BLI response value entry in experiment [1] (200 μM LIN) is reported as “lower than 0.2”. Moreover, the “effect of K366A/Q510A mutation on binding affinity between LIN and SHP2-PTP” value in experiment [1] (BLI) is recorded as “significantly eliminated”.

These data come from paper PMC9946977, “Identification of linderalactone as a natural inhibitor of SHP2 to ameliorate CCl4-induced liver fibrosis” (Frontiers in Pharmacology, 2023).
